The test system of this experiment is PICS mouse model. The experiment can be described thus: PICS score in PICS mouse model (sepsis/ICU-care model). It counts as in vivo. Conditions: follow-up study; fluoxetine 20 mg/kg, whey protein 1.8 g/kg, daily oral gavage; in contrast to collagen hydrolysate. As to the method: A validated PICS mouse model was used, which is based on the model of Hujinami et al. (J Clin Med. 2021 April; 10(8): 1593.). The model is proven to induce PICS by mimicking ICU care following polymicrobial sepsis. This is achieved by intraperitoneal injection with cecal slurry followed by other typical ICU-related interventions (i.e. antibiotics and saline administration) for 72 h. The model incorporates a specific combination of physical (grip strength test), mental (anxiety level), and cognitive (discrimination index, habituation index, exploration time) parameters that often characterize PICS.
The development of PICS in the model was first confirmed in a pilot study (not shown herein). The mice develop PICS after ˜1 week.
The mice (C57BL6J, Charles River laboratories, France) receive collagen hydrolysate (“CH”, Peptan, Porcine ˜1800 Da, Rousselot B. V.) or the relevant controls according to the following experimental groups: • 1. No PICS+vehicle (saline), i.e. “Control” • 2. PICS+vehicle (saline), i.e. “PICS” • 3. PICS+CH 1.8 g/kg (˜10 g clinical dose), i.e. “PICS+low dose CH” • 4. PICS+CH 8 g/kg (˜44 g clinical dose), i.e. “PICS+high dose CH”
The mice are administered once a day from day 12 through day 47.
Treatment is started 4 days after the induction of PICS. The CH or vehicle is administered by daily oral gavage for a duration of […] (day 12-47). […]

The text below walks through data of patent publication US12226459B2, “Collagen hydrolysate for use in prevention and/or treatment of post intensive care syndrome (pics)” (ROUSSELOT B.V., priority 2022, dated 2025).

For the molecule `CNCCC(Oc1ccc(C(F)(F)F)cc1)c1ccccc1` (stereo not shown) [fluoxetine], the “improvement in PICS score” value is recorded as “little/no improvement”.
